Assay results as given in ChEMBL document CHEMBL4038300, “Return of D4 Dopamine Receptor Antagonists in Drug Discovery” (J Med Chem, 2017).

Assays:
D(1A) dopamine receptor = D(1A) dopamine receptor (Homo sapiens, UniProt P21728); assay: Inhibition of dopamine D1 receptor (unknown origin) at 10 uM
Histamine H1 receptor = Histamine H1 receptor (Homo sapiens, UniProt P35367); assay: Inhibition of histamine H1 receptor (unknown origin); details: concentration not given here
[1] = Inhibition of human dopamine D4.4 receptor
[2] = biological target: Neuropeptide Y receptor type 1 (Homo sapiens) (UniProt P25929); assay: Inhibition of NPY1 receptor (unknown origin); details: concentration not given here
Sequence of Neuropeptide Y receptor type 1 (Homo sapiens) (P25929 whole entry): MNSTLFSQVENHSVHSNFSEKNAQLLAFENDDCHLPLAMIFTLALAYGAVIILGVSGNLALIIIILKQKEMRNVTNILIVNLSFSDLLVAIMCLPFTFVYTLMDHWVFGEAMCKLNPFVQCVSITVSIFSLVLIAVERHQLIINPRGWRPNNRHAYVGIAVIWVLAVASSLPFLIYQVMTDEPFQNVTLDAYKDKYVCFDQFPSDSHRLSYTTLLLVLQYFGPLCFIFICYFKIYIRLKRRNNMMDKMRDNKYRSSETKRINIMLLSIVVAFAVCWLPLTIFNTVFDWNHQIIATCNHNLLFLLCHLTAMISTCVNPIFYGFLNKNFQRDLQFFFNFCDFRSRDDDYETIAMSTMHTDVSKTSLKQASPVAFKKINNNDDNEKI

[3] = biological target: Glutamate [NMDA] receptor (Homo sapiens) (UniProt Q05586+Q12879+Q13224+O15399+O60391+Q14957+Q8TCU5); assay: Inhibition of NMDA receptor (unknown origin); details: concentration not given here
[4] = biological target: 5-hydroxytryptamine receptor 2A (Homo sapiens, UniProt P28223); assay: Inhibition of serotonin 5-HT2 receptor (unknown origin); details: concentration not given here
Sequence of 5-hydroxytryptamine receptor 2A (P28223 whole entry): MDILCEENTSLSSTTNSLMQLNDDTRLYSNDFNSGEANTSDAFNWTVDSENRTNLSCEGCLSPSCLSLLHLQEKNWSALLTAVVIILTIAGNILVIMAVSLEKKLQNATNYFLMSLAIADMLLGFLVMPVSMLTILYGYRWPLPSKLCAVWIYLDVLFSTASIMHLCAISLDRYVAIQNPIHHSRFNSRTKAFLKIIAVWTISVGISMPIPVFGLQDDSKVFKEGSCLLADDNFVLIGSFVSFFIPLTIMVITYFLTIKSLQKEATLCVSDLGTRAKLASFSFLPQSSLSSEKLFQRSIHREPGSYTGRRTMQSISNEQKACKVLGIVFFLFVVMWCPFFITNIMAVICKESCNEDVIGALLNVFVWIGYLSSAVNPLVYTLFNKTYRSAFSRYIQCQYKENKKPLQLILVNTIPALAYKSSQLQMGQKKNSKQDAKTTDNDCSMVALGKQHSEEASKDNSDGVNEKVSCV

[5] = biological target: Histamine H3 receptor (Homo sapiens) (UniProt Q9Y5N1); assay: Inhibition of histamine H3 receptor (unknown origin); details: concentration not given here
Sequence of Histamine H3 receptor (Homo sapiens) (Q9Y5N1 whole entry): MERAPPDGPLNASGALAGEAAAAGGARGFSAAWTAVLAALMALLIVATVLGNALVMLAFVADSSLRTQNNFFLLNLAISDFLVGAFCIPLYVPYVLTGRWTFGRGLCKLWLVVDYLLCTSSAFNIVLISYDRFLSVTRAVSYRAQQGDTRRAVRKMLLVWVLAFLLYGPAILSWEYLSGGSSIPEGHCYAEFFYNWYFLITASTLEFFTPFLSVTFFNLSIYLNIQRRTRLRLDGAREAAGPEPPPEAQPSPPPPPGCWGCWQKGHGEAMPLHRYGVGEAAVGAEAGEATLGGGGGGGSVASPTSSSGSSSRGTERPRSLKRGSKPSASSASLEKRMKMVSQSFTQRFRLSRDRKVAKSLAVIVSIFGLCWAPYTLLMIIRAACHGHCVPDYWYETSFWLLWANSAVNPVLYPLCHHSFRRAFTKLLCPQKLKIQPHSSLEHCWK

Homo sapiens = species on record: Homo sapiens; assay: Inhibition of beta-adrenergic receptor (unknown origin); details: concentration not given here
[6] = biological target: Adrenergic receptor alpha-2 (Homo sapiens) (UniProt P08913+P18825+P18089); assay: Inhibition of alpha2 adrenergic receptor (unknown origin); details: concentration not given here
[7] = biological target: 5-hydroxytryptamine receptor 2C (Homo sapiens) (UniProt P28335); assay: Inhibition of serotonin 5-HT2C receptor (unknown origin); details: concentration not given here
Sequence of 5-hydroxytryptamine receptor 2C (Homo sapiens) (P28335 whole entry): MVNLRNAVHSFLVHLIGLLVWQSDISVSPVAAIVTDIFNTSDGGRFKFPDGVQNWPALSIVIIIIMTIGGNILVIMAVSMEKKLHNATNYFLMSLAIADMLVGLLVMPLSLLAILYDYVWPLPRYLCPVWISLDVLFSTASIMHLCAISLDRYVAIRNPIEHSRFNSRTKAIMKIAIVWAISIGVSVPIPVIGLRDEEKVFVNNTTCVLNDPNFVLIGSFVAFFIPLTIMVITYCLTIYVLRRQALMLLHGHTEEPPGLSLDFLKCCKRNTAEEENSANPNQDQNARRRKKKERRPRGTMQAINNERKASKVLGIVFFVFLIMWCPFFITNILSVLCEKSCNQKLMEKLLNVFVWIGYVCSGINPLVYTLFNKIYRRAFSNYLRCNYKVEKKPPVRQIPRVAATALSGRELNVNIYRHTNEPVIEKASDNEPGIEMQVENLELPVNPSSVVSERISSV

D(1B) dopamine receptor = D(1B) dopamine receptor (Homo sapiens, UniProt P21918); assay: Inhibition of dopamine D5 receptor (unknown origin) at 10 uM
Sequence of D(1B) dopamine receptor (P21918 whole entry): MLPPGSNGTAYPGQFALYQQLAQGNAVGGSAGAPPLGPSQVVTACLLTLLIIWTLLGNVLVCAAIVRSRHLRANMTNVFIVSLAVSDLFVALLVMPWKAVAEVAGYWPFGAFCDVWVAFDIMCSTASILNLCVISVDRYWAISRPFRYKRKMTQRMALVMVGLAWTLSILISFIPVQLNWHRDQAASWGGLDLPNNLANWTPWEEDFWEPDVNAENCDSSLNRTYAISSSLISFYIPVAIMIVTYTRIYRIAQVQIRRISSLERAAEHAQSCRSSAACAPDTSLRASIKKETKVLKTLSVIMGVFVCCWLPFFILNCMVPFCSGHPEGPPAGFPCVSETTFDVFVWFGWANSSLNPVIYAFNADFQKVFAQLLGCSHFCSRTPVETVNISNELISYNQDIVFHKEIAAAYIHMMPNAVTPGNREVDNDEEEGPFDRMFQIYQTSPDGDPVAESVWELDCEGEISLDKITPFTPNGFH

[8] = biological target: Adrenergic receptor alpha-1 (Homo sapiens) (UniProt P35348+P25100+P35368); assay: Inhibition of alpha1 adrenergic receptor (unknown origin); details: concentration not given here
[9] = Inhibition of human dopamine D4.7 receptor
[10] = biological target: Neuropeptide Y receptor type 2 (Homo sapiens) (UniProt P49146); assay: Inhibition of NPY2 receptor (unknown origin); details: concentration not given here
Sequence of Neuropeptide Y receptor type 2 (Homo sapiens) (P49146 whole entry): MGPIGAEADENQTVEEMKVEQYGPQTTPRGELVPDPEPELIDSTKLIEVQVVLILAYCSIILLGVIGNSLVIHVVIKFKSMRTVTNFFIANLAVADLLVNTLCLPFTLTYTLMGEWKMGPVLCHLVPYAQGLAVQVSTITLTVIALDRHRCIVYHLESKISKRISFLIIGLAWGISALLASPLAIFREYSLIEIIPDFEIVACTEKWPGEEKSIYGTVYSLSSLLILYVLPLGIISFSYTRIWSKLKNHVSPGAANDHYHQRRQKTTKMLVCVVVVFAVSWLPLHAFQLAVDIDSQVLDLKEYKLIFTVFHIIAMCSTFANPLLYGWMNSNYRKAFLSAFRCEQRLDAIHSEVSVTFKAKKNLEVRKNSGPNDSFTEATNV

D(3) dopamine receptor [11] = biological target: T1, D(3) dopamine receptor (Homo sapiens, UniProt P35462); assay: Inhibition of dopamine D3 receptor (unknown origin) at 10 uM
T1 sequence (P35462 whole entry): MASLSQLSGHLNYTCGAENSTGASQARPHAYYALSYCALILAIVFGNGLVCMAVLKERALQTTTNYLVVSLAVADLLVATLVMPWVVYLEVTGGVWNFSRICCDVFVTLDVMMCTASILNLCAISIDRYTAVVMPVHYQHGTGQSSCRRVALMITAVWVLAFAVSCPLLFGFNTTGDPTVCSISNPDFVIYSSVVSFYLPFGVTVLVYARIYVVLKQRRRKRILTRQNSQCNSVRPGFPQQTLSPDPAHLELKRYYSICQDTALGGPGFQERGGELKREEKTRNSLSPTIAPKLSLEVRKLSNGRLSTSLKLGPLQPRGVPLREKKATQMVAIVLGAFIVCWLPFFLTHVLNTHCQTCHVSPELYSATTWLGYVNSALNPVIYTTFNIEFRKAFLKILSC

[12] = Inhibition of human dopamine D4.2 receptor
D(2) dopamine receptor = D(2) dopamine receptor (Homo sapiens, UniProt P14416); assay: Inhibition of human dopamine D2 receptor
Sequence of D(2) dopamine receptor (P14416 whole entry): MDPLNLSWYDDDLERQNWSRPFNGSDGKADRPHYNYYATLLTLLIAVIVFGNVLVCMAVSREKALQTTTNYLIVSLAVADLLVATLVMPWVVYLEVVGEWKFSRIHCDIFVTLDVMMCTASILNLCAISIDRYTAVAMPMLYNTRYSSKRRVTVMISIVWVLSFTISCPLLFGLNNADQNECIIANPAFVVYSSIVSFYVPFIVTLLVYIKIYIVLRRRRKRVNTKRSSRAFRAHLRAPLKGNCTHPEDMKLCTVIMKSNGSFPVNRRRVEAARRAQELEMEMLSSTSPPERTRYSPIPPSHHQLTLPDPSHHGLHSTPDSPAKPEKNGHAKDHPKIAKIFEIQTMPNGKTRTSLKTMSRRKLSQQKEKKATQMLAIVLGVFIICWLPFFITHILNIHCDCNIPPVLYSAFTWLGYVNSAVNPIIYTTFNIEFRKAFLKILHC

D(3) dopamine receptor [13] = biological target: T1, D(3) dopamine receptor; assay: Inhibition of human dopamine D3 receptor
D(4) dopamine receptor = biological target: T2, D(4) dopamine receptor (Homo sapiens, UniProt P21917); assay: Inhibition of human dopamine D4 receptor
T2 sequence (P21917 whole entry): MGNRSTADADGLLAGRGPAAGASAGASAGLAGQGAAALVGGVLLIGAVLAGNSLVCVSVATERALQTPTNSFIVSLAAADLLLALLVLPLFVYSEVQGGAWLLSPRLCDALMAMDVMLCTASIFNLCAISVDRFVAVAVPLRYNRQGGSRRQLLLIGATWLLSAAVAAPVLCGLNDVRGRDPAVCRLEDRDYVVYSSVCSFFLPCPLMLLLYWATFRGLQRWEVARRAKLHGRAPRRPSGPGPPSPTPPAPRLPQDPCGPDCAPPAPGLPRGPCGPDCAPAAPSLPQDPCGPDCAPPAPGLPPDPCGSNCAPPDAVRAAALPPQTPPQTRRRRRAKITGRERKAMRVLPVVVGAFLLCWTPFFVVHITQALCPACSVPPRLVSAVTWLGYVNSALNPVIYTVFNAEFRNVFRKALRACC

[14] = Oral bioavailability in rat at 20 mg/kg; format: ADME, organism-based; details: in vivo

Sequence of Histamine H1 receptor (P35367 whole entry): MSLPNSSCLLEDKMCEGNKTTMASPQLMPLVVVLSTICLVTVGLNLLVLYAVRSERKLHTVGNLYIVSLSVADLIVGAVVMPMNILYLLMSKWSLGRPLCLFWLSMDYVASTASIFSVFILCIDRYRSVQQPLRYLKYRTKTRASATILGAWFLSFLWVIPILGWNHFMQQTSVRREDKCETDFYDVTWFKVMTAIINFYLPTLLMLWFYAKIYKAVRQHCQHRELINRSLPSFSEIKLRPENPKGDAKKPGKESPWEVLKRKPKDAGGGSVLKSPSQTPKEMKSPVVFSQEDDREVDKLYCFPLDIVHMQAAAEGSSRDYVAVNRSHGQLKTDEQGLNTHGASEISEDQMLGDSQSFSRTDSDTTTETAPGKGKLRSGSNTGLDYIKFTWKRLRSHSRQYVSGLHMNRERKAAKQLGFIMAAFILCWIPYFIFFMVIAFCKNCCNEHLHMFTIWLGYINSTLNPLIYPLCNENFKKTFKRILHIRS
Sequence of D(1A) dopamine receptor (P21728 whole entry): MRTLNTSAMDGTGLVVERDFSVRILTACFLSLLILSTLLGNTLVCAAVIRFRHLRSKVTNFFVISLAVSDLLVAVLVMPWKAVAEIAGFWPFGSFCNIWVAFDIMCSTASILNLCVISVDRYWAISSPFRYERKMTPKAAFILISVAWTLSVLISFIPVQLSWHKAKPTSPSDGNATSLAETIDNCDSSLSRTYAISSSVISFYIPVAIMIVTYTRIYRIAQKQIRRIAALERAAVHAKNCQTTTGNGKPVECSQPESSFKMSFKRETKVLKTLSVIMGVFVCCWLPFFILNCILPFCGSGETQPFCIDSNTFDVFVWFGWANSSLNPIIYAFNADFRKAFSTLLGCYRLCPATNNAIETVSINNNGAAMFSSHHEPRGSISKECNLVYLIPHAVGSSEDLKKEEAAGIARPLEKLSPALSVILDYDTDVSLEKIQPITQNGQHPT

SMILES | inhibition (D(1A) dopamine receptor) | inhibition (Histamine H1 receptor) | Ki [1] | inhibition [2] | inhibition [3] | inhibition [4] | inhibition [5] | inhibition (Homo sapiens) | inhibition [6] | inhibition [7] | inhibition (D(1B) dopamine receptor) | inhibition [8] | Ki [9] | inhibition [10] | inhibition (D(3) dopamine receptor [11]) | Ki [12] | Ki (D(2) dopamine receptor) | Ki (D(3) dopamine receptor [13]) | Ki (D(4) dopamine receptor) | bioavailability [14]
c1ccc(-c2nc(CN3CCN(c4ncccn4)CC3)c[nH]2)cc1 | < 50% | < 50% | 2.2 nM | < 50% | < 50% | < 50% | < 50% | < 50% | < 50% | < 50% | < 50% | < 50% | 2.1 nM | < 50% | < 50% | 4.2 nM | – | – | – | –
c1ccc(OCC2CN(Cc3c[nH]c4ccccc34)CCO2)cc1 (stereo not given) | – | – | – | – | – | – | – | – | – | – | – | – | – | – | – | – | 400 nM | 1480 nM | 5.6 nM | > 40%
